Experiment [1] deals with theophylline-binding RNA aptamer (RNA, aptamer) GGCGAUACCAGCCGAAAGGCCCUUGGCAGCGUC
The experiment can be described thus: 2D 1H-1H NMR ZZ-exchange. Conditions: no Mg2+; 15 °C; apparent; slope of kf against free theophylline.

Experiment [2] shares this test system. Kind of experiment: 2D 1H-1H NMR ZZ-exchange, koff/kon. The following applies: no Mg2+; 15 °C; from apparent rate constants.

The structures appear in SMILES notation.

A word on the kon: it is the second-order rate constant of association.

As for `Cn1c(=O)c2[nH]cnc2n(C)c1=O`, in experiment [1], the kon was 600 ± 57 M⁻¹ s⁻¹. In addition, the Kd in experiment [2] stood at 2500 µM.
